Data set [1] deals with T1, Orf2* (Actinoplanes teichomyceticus, UniProt A0A561VD00). Briefly: Deacetylation catalytic specificity. The following applies: substrate of Orf2* (WT). Format: biochemical.
In a further data set the test system is MRSA ATCC 43300. Kind of data set: MIC, broth microdilution. It counts as cell-based, Staphylococcus aureus. The procedure, abridged:
(§1)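 Step one, pick colonies from 18-24 h agar plates into broth until 0.5 McFarland turbidity; step two, dilute to approximately 1×10^8 CFU mL^−1; step three, incubate at 37° C for 18-24 h and score visible growth.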
(Dilution methods test growth across graded concentrations, often in twofold steps.)

In another data set the test system is MRSA ATCC 700698 hVISA. Briefly: MIC, broth microdilution. It counts as cell-based, Staphylococcus aureus. The method, boiled down: as §1
The next data set concerns MRSA ATCC 700787 VRSA. Briefly: MIC, broth microdilution. Format: cell-based, Staphylococcus aureus. The procedure, abridged: as §1
The subject of another data set is MRSA ATCC 700789 VRSA. Briefly: MIC, broth microdilution. It counts as cell-based, Staphylococcus aureus. The method, boiled down: as §1
The next data set relates to MRSA ATCC BAA-38. Briefly: MIC, broth microdilution. It counts as cell-based, Staphylococcus aureus. The method, boiled down:
as §1

The subject of the next data set is MRSA ATCC BAA-39. Briefly: MIC, broth microdilution. It counts as cell-based, Staphylococcus aureus. The method, boiled down: as §1
A further data set deals with MRSA ATCC BAA-44. Briefly: MIC, broth microdilution. It counts as cell-based, Staphylococcus aureus. The method, boiled down:
as §1

Another data set has as its system S. aureus ATCC 29213. Kind of data set: MIC, broth microdilution. It counts as cell-based, Staphylococcus aureus. The method, boiled down:
as §1

Another data set deals with E. faecalis ATCC 29302. Kind of data set: MIC, broth microdilution. It counts as cell-based. The procedure, abridged:
as §1

Another data set relates to VRE ATCC 700221 (vanA). Kind of data set: MIC, broth microdilution. It counts as cell-based, enterococci. The procedure, abridged:
as §1

In another data set the test system is VRE ATCC 700425 (vanC). Briefly: MIC, broth microdilution. Format: cell-based, enterococci. The procedure, abridged: as §1
The test system of a further data set is VRE ATCC 700802 (vanB). Kind of data set: MIC, broth microdilution. Format: cell-based, enterococci. The method, boiled down:
as §1

The target of data set [2] is T1, Orf2*. Briefly: ITC binding affinity. The following applies: ITC versus Orf2*. The method, then: (§2) Isothermal Titration Calormetry (ITC) Analysis
(§3) A stock solution (50 mM) was prepared by dissolving r6,GlcNAc pseudoaglycone (9) in 50% DMSO. The 1 mM protein solutions of Orf2*, Orf2*T and Dbv27 were prepared in a 50 mM HEPES buffer solution at pH 8.0. The solution (50 mM HEPES, pH8.0 and 10% DMSO) that contained compound 9 (1 mM) or S-adenosylmethionine (SAM) (1 mM) in a 40 μL injection syringe was titrated into the Orf2*, Orf2*T or Dbv27 (0.1 mM) protein solution, which was placed in the sample cell of a 200 μL volume. Each titration consisted of 16 injections of a 2 μL4 s^−1 duration in an interval of 150 seconds. Data analysis was performed by software.

A further data set deals with T2, Orf2*T (Actinoplanes teichomyceticus, UniProt A0A561VD00, F193Y/S98A/V121A).
T2 sequence (A0A561VD00 with tags, fused parts or gaps S98A/V121A/F193Y): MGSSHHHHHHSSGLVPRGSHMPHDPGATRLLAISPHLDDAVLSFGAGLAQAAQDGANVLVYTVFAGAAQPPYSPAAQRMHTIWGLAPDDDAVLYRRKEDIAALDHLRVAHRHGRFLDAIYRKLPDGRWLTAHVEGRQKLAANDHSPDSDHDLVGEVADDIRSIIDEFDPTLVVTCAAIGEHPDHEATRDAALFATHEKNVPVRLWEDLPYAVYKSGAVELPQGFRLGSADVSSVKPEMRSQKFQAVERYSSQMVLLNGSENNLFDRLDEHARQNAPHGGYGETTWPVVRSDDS
Kind of data set: ITC binding affinity. The following applies: ITC versus Orf2*T. The method, then:
as §2, §3

Data set [3] concerns A. baumannii ATCC 19606. Kind of data set: MIC, broth microdilution. Format: cell-based, Acinetobacter baumannii. The procedure, abridged:
as §1

In data set [4] the test system is MRSA ATCC 700787. Kind of data set: Thin-section TEM, cell wall morphology. Format: cell-based, Staphylococcus aureus. The method, then: Thin-Section Transmission Electron Microscopy (TEM)
An overnight cultured MRSA ATCC 700787, VRE ATCC 700221 or A. baumannii ATCC 19606 was individually sub-cultured into a fresh medium. Bacteria at the exponential phase were treated with a given test compound at a concentration of 4×MIC for 1-4 hour at 37° C. and followed by wash and resuspension in PBS. Bacteria cells for the TEM analysis were prepared as follows: Cells were fixed with 2.5% glutaraldehyde for 30 minutes. After the fixation, cells were washed twice with PBS and fixed with 1% osmium tetraoxide for another 30 minutes. All the buffer was removed with distilled water. The cells were then stained with 1% uranyl acetate and dehydrated with a graded ethanol solution. Cells were embedded in resin. Finally, each sample was cut into thin slices of approximately 90 nm with a glass knife and stained with uranyl acetate. The images of bacterial morphological were recorded.
The cell wall/membrane apparently is the targets, while the extent of damage depends on what compound imposes on the strain. […] Cell wall thickening has been a common phenotype in clinical MRSA isolates, which may well be a phenotypic determinant for VRSA. The systemic cell-wall damage may account for the cell-wall biosynthesis crippled all over the cell surface in cell-wall thickening strains, thus leading cells to lysis as a result of the osmotic pressure of cytoplasm.

A further data set has as its system HEK293T cells. Briefly: Alamar Blue cell viability assay. It counts as cell-based, human. The conditions noted are these: up to 100 μgmL^−1; 2 and 24 h. The method, then: The Alamar Blue (AB) assay, which includes a redox indicator that changes color or emits fluorescence in response to a metabolic activity, was used to assess in vitro mammalian cell cytotoxicity (human embryonic kidney cells (HEK293T)) upon an antibiotic treatment. 2×10^5 cellsmL^−1 were allowed to adhere on 96-well plates overnight at 37° C. in a humidified incubator (5% CO2 atmosphere). Tested compounds were dissolved in 50% DMSO to make 1 mgmL^−1 of a stock solution. Cells were separately aliquoted with 5 μL of a test compound (final concentration: 100 μgmL^−1) and incubated. PBS and 50% DMSO, which was used to dissolve compounds, served as a control. Cell viability was triplicated and assessed at 2 and 24 hour time points for each test compound, on which the measurements followed the manufacturer protocol.

The subject of data set [5] is MRSA ATCC 700787. Kind of data set: In vivo efficacy, intraperitoneal MRSA infection. Set-up: species or system mice. The following applies: peritoneal fluid, 24 hours post-inoculation, single dose 20 mgkg^−1 IP. The method, then: (§4) In Vivo Efficacy of r6,N-Acyl-Glc Tei Analogs
(§5) Female C57BL/6 mice (6 weeks of age; about 16-19 g, 3-5 mice per group) were intraperitoneally inoculated with 300 μL of MRSA ATCC 700787 suspension (about 10^7 CFUmL^−1). For intranasal A. baumannii (ATCC 19606) inoculation, mice were anesthetized, and inoculated intranasally with about 10^7-10^8 CFUmL^−1 A. baumannii in 50 μL of PBS. Treatments were started 1 hour after the bacterial challenge. The dose administration to mice was set as follows: teicoplanin (1) or r6,C8-Tei analog (14) 20 mgkg^−1 was intraperitoneally injected to MRSA-infected mice; amikacin (15 mgkg^−1), teicoplanin (1) (30 mgkg^−1), kanamycin (30 mgkg^−1) or r1,Me2-r6,guanidino-C8 analog (24) (30 mgkg^−1) was intraperitoneally injected to AB-infected mice. To assess bacteraemia, the test animals were sacrificed to collect 1 mL of peritoneal fluid (PF) for MRSA counting or the lungs were lavaged to collect 0.6 mL bronchoalveolar lavage (BAL) fluid for A. baumannii counting.
For MRSA, mice were inoculated intraperitoneally (IP) with 0.3 mL of MRSA ATCC 700787 suspension (about 10^7 CFUmL^−1). […] For the saline treated control, bacterial count was calculated (about 7.5 log CFUmL^−1, FIG. 4A). […]

Data set [6] concerns A. baumannii ATCC 19606. Briefly: In vivo efficacy, intranasal A. baumannii infection. Set-up: species or system mice. The conditions noted are these: BAL fluid, 24 hours post-inoculation, 30 mgkg^−1. The procedure:
as §4, §5
For AB (ATCC 19606), female C57BL/6 mice were first anesthetized by intraperitoneal injection of zoletil and then intranasally inoculated with 50 μL of bacteria in a PBS solution (about 10^7-10^8 CFUmL^−1). The treatment started 1 hour post-infection with a single dose of compound 24 (30 mgkg^−1), compound 1 (30 mgkg^−1), amikacin (15 mgkg^−1), or kanamycin (30 mgkg^−1), where saline/compound 1 and amikacin/kanamycin respectively served as negative and positive controls. To assess the density of bacteraemia, the lungs of mice were lavaged to collect 0.6 mL bronchoalveolar lavage (BAL) fluid from each mouse at 24 hours post-inoculation. For saline/compound 1 treated controls, the bacterial load was counted (about 4 log CFUmL^−1, FIG. 4B), where the bacterial load was reduced by 0.5 or 1 log CFUmL^−1 with the treatment of amikacin/kanamycin or compound 24, respectively.

In brackets after ≈: the same amount, converted by molar mass.

T1 sequence (A0A561VD00 entry or part of it): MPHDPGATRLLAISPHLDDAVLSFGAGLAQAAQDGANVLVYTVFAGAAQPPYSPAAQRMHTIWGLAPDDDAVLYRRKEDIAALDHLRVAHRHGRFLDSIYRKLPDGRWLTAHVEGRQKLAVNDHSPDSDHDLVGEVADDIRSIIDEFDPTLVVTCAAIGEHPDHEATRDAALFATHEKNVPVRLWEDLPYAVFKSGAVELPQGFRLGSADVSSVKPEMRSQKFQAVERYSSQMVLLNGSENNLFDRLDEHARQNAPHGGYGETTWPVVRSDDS

On to `CC(=O)N[C@H]1[C@H](Oc2c3cc4cc2Oc2ccc(cc2Cl)[C@@H](O)[C@@H]2NC(=O)[C@H](NC(=O)[C@@H]4NC(=O)[C@H]4NC(=O)[C@@H](Cc5ccc(c(Cl)c5)O3)NC(=O)[C@H](N)c3ccc(O)c(c3)Oc3cc(O)cc4c3)c3ccc(O)c(c3)-c3c(O)cc(O)cc3[C@@H](C(=O)O)NC2=O)O[C@H](CO)[C@@H](O)[C@@H]1O` [Compound 5, r4,GlcNAc Tei-pseudoaglycone], for which the “kcatKm^−1” value on Orf2* [1] came out at 377300 M⁻¹ s⁻¹.
Usually MIC stands for the least concentration at which growth counts as inhibited. What is called Kd is the concentration at which binding is half-saturated. `CC(=O)N[C@H]1[C@H](O[C@@H]2c3ccc(c(Cl)c3)Oc3cc4cc(c3O)Oc3ccc(cc3Cl)C[C@H]3NC(=O)[C@H](N)c5ccc(O)c(c5)Oc5cc(O)cc(c5)[C@H](NC3=O)C(=O)N[C@H]4C(=O)N[C@H]3C(=O)N[C@@H]2C(=O)N[C@H](C(=O)O)c2cc(O)cc(O)c2-c2cc3ccc2O)O[C@H](CO)[C@@H](O)[C@@H]1O` [Compound 9, r6,GlcNAc Tei-pseudoaglycone]: the MIC amounted to 0.25 µg/mL (≈ 0.178 µM) against MRSA ATCC 43300 (Staphylococcus aureus); 1 µg/mL (≈ 0.713 µM) in the data set on MRSA ATCC 700698 hVISA (Staphylococcus aureus); 0.5 µg/mL (≈ 0.357 µM) in the data set with MRSA ATCC 700787 VRSA (Staphylococcus aureus); 2 µg/mL (≈ 1.43 µM) in the data set with MRSA ATCC 700789 VRSA (Staphylococcus aureus); 0.25 µg/mL (≈ 0.178 µM) with MRSA ATCC BAA-38 (Staphylococcus aureus); 0.125 µg/mL (≈ 0.0892 µM) in the data set on MRSA ATCC BAA-39 (Staphylococcus aureus). Moreover, the MIC in the data set with MRSA ATCC BAA-44 (Staphylococcus aureus) was 0.125 µg/mL (≈ 0.0892 µM); in the data set with S. aureus ATCC 29213 (Staphylococcus aureus, ATCC29213), 0.25 µg/mL (≈ 0.178 µM); with E. faecalis ATCC 29302 (Enterococcus faecalis, ATCC29302), 2 µg/mL (≈ 1.43 µM); with VRE ATCC 700221 (vanA) (Enterococcus), greater than 128 µg/mL; against VRE ATCC 700425 (vanC) (Enterococcus), 4 µg/mL (≈ 2.85 µM); against VRE ATCC 700802 (vanB) (Enterococcus), 4 µg/mL (≈ 2.85 µM). The Kd at Orf2* [2] was determined as 1420 ± 1100 µM; at Orf2*T it was 125 ± 14 µM.
“teicoplanin [Compound 1, reference compound]”: the MIC in the data set with MRSA ATCC 43300 (MRSA ATCC 43300) came out at 0.25 µg/mL; against MRSA ATCC 700698 hVISA (MRSA ATCC 700698 hVISA), 4 µg/mL; against MRSA ATCC 700787 VRSA (MRSA ATCC 700787 VRSA), 8 µg/mL; in the data set on MRSA ATCC 700789 VRSA (MRSA ATCC 700789 VRSA), 4 µg/mL; against MRSA ATCC BAA-38 (MRSA ATCC BAA-38) it was 0.25 µg/mL; against MRSA ATCC BAA-39 (MRSA ATCC BAA-39), 0.5 µg/mL. Moreover, the minimal inhibitory concentration (MIC) with MRSA ATCC BAA-44 (MRSA ATCC BAA-44) is 0.5 µg/mL; against S. aureus ATCC 29213 (SA ATCC 29213), 0.25 µg/mL; with E. faecalis ATCC 29302 (EF ATCC 29302), 0.125 µg/mL; against VRE ATCC 700221 (vanA) (VRE ATCC 700221 (vanA)), greater than 128 µg/mL; in the data set with VRE ATCC 700425 (vanC) (VRE ATCC 700425 (vanC)), 1 µg/mL; in the data set with VRE ATCC 700802 (vanB) (VRE ATCC 700802 (vanB)) it was 0.5 µg/mL. In addition, the MIC with A. baumannii ATCC 19606 [3] (A. baumannii ATCC 19606, Table 3, first figure of cell) was 100 µM; against A. baumannii ATCC 19606 [3] (A. baumannii ATCC 19606, Table 3, second figure of cell), 187.97 µg/mL. Besides, the “cell wall morphology by TEM” value with MRSA ATCC 700787 [4] is on record as “loose”. In addition, in the data set on HEK293T cells, the “cytotoxicity to HEK293T cells” value was “did not exhibit any observable toxicity”. Also, in the data set on MRSA ATCC 700787 [5], the “bacterial load reduced by” value was found to be 1.5 log CFUmL^−1. Besides, the bacterial load entry with A. baumannii ATCC 19606 [6] is given as “about 4 log CFUmL^−1”.

The values above are taken from patent US11739122B2, “Glycopeptide antibiotic compounds, methods for producing the same, and uses thereof” (Academia Sinica, priority 2019, dated 2023).
